Measurements as given in US8399502B2, “Analogs of indole-3-carbinol and their use as agents against infection” (priority 2008, dated 2013).
In brackets after ≈: the same amount, converted by molar mass.

Assays:
Assay in all cases: microbe, parasite or virus in culture
Format in all cases: cell-based
[1] = tested on: Francisella tularensis (FT; Gram-negative); details: read-out: MIC FT
[2] = tested on: Bacillus anthracis (BA; Gram-positive); details: read-out: MIC BA
[3] = tested on: methicillin-susceptible Staphylococcus aureus (MSSA); details: read-out: MIC MSSA
[4] = tested on: methicillin-resistant Staphylococcus aureus (MRSA); details: read-out: MIC MRSA
[5] = tested on: penicillin-susceptible S. pneumoniae (PSSP); details: Streptococcus pneumoniae, read-out: MIC PSSP
[6] = tested on: penicillin-resistant S. pneumoniae (PRSP); details: Streptococcus pneumoniae, read-out: MIC PRSP
[7] = tested on: Yersinia pestis (YP; Gram-negative); details: read-out: MIC YP
[8] = tested on: Brucella abortus (BAB; Gram-negative); details: read-out: MIC BAB
[9] = tested on: Burkholderia mallei (BM; Gram-negative); details: read-out: MIC BM
[10] = tested on: Burkholderia pseudomallei (BP; Gram-negative); details: read-out: MIC BP

**Q.** Which results are given for `c1ccc2c(Cc3c[nH]c4ccccc34)c[nH]c2c1`?
**A.** MIC [1]: 8 µg/mL (≈ 32.5 µM); MIC [2]: > 64 µg/mL; MIC [3]: > 64 µg/mL; MIC [4]: > 64 µg/mL; MIC [5]: > 64 µg/mL; MIC [6]: 8 µg/mL (≈ 32.5 µM)

**Q.** Which results are given for `C=C(c1c[nH]c2ccccc12)c1c[nH]c2ccccc12`?
**A.** MIC [1]: 16 µg/mL (≈ 61.9 µM); MIC [2]: 8 µg/mL (≈ 31 µM); MIC [3]: 8 µg/mL (≈ 31 µM); MIC [4]: 8 µg/mL (≈ 31 µM); MIC [5]: 4 µg/mL (≈ 15.5 µM); MIC [6]: 2 µg/mL (≈ 7.74 µM)

**Q.** Which MIC [1] does the source give for `c1ccc2[nH]c(Cc3c[nH]c4ccccc34)cc2c1` here?
**A.** 4 µg/mL (≈ 16.2 µM)

**Q.** What about the MIC [2] of the same compound?
**A.** 16 µg/mL (≈ 65 µM)

**Q.** What about the MIC [3] of the same compound?
**A.** 32 µg/mL (≈ 130 µM)

**Q.** What about the MIC [4] of the same compound?
**A.** 32 µg/mL (≈ 130 µM)

**Q.** And the MIC [5]?
**A.** 8 µg/mL (≈ 32.5 µM)

**Q.** And the MIC [6]?
**A.** 1 µg/mL (≈ 4.06 µM)

**Q.** `c1ccc2[nH]c(Cc3cc4ccccc4[nH]3)cc2c1` was tested. Which MIC [1] did it give?
**A.** 4 µg/mL (≈ 16.2 µM)

**Q.** And the MIC [2]?
**A.** 16 µg/mL (≈ 65 µM)

**Q.** What about the MIC [3] of the same compound?
**A.** 16 µg/mL (≈ 65 µM)

**Q.** What about the MIC [4] of the same compound?
**A.** 32 µg/mL (≈ 130 µM)

**Q.** And the MIC [5]?
**A.** 1 µg/mL (≈ 4.06 µM)

**Q.** What about the MIC [6] of the same compound?
**A.** 2 µg/mL (≈ 8.12 µM)

**Q.** Which results are given for `CCOC(=O)c1ccc2[nH]cc(Cc3c(C)[nH]c4ccccc34)c2c1`?
**A.** MIC [1]: 4 µg/mL (≈ 12 µM); MIC [2]: 8 µg/mL (≈ 24.1 µM); MIC [3]: > 64 µg/mL; MIC [4]: > 64 µg/mL; MIC [5]: 2 µg/mL (≈ 6.02 µM); MIC [6]: 8 µg/mL (≈ 24.1 µM)

**Q.** Which results are given for `CCOC(=O)Oc1c2[nH]c3ccccc3c2cc2c1[nH]c1ccccc12`?
**A.** MIC [1]: ≤ 0.5 µg/mL; MIC [2]: 4 µg/mL (≈ 11.6 µM); MIC [3]: 4 µg/mL (≈ 11.6 µM); MIC [4]: 4 µg/mL (≈ 11.6 µM); MIC [5]: 4 µg/mL (≈ 11.6 µM); MIC [6]: 2 µg/mL (≈ 5.81 µM)

**Q.** With `c1ccc2c(Cc3[nH]c4ccccc4c3Cc3c[nH]c4ccccc34)c[nH]c2c1` as the compound, how does the MIC [1] read?
**A.** 2 µg/mL (≈ 5.33 µM)

**Q.** And the MIC [2]?
**A.** 4 µg/mL (≈ 10.7 µM)

**Q.** And the MIC [3]?
**A.** 8 µg/mL (≈ 21.3 µM)

**Q.** What about the MIC [4] of the same compound?
**A.** 8 µg/mL (≈ 21.3 µM)

**Q.** What about the MIC [5] of the same compound?
**A.** 4 µg/mL (≈ 10.7 µM)

**Q.** And the MIC [6]?
**A.** 2 µg/mL (≈ 5.33 µM)

**Q.** What does the source list for `Cc1onc(-c2ccccc2)c1C(=O)N[C@@H]1C(=O)N2[C@@H]1SC(C)(C)[C@@H]2C(=O)O` [Oxacillin, oxacillin, reference compound]?
**A.** MIC [1]: > 64 µg/mL; MIC [2]: 0.8 µg/mL (≈ 1.99 µM); MIC [4]: > 64 µg/mL; MIC [5]: 0.1 µg/mL (≈ 0.249 µM)

**Q.** How did the MIC [1] turn out when `COc1c2[nH]c3ccc(F)cc3c2cc2c1[nH]c1ccc(F)cc12` [drawing 194] was run?
**A.** 0.5 µg/mL (≈ 1.55 µM)

**Q.** What about the MIC [2] of the same compound?
**A.** 1 µg/mL (≈ 3.1 µM)

**Q.** And the MIC [7]?
**A.** > 16 µg/mL

**Q.** And the MIC [8]?
**A.** 1 µg/mL (≈ 3.1 µM)

**Q.** And the MIC [9]?
**A.** > 16 µg/mL

**Q.** And the MIC [10]?
**A.** > 16 µg/mL

**Q.** Which results are given for `CN(C)CCOc1c2[nH]c3ccc(F)cc3c2cc2c1[nH]c1ccc(F)cc12` [drawing 195]?
**A.** MIC [1]: 0.25 µg/mL (≈ 0.659 µM); MIC [2]: 0.5 µg/mL (≈ 1.32 µM); MIC [7]: 8 µg/mL (≈ 21.1 µM); MIC [8]: 0.5 µg/mL (≈ 1.32 µM); MIC [9]: 4 µg/mL (≈ 10.5 µM); MIC [10]: 8 µg/mL (≈ 21.1 µM)

**Q.** `CN(C)CC#Cc1c2[nH]c3ccc(F)cc3c2cc2c1[nH]c1ccc(F)cc12` [drawing 210] was tested. Which MIC [1] did it give?
**A.** 0.25 µg/mL (≈ 0.67 µM)

**Q.** What about the MIC [2] of the same compound?
**A.** 0.5 µg/mL (≈ 1.34 µM)

**Q.** What about the MIC [7] of the same compound?
**A.** 2 µg/mL (≈ 5.36 µM)

**Q.** What about the MIC [8] of the same compound?
**A.** 0.25 µg/mL (≈ 0.67 µM)

**Q.** And the MIC [9]?
**A.** 8 µg/mL (≈ 21.4 µM)

**Q.** What about the MIC [10] of the same compound?
**A.** > 8 µg/mL

**Q.** How did the MIC [1] turn out when `N=C(N)NCCCOc1c2[nH]c3ccc(Cl)cc3c2cc2c1[nH]c1ccc(Cl)cc12` [drawing 217] was run?
**A.** 0.25 µg/mL (≈ 0.568 µM)

**Q.** And the MIC [2]?
**A.** 0.25 µg/mL (≈ 0.568 µM)

**Q.** What about the MIC [7] of the same compound?
**A.** 1 µg/mL (≈ 2.27 µM)

**Q.** What about the MIC [8] of the same compound?
**A.** 0.25 µg/mL (≈ 0.568 µM)

**Q.** What about the MIC [9] of the same compound?
**A.** 1 µg/mL (≈ 2.27 µM)

**Q.** What about the MIC [10] of the same compound?
**A.** 2 µg/mL (≈ 4.54 µM)

**Q.** Which MIC [1] does the source give for `OC1CCN(CCCOc2c3[nH]c4ccc(Cl)cc4c3cc3c2[nH]c2ccc(Cl)cc23)CC1` [drawing 229] here?
**A.** 0.25 µg/mL (≈ 0.518 µM)

**Q.** What about the MIC [2] of the same compound?
**A.** 0.25 µg/mL (≈ 0.518 µM)

**Q.** What about the MIC [7] of the same compound?
**A.** 2 µg/mL (≈ 4.15 µM)

**Q.** And the MIC [8]?
**A.** 0.25 µg/mL (≈ 0.518 µM)

**Q.** What about the MIC [9] of the same compound?
**A.** 8 µg/mL (≈ 16.6 µM)

**Q.** And the MIC [10]?
**A.** > 8 µg/mL

**Q.** `Fc1ccc2[nH]c3c(OCCCn4cncn4)c4[nH]c5ccc(F)cc5c4cc3c2c1` [drawing 231] was tested. Which MIC [1] did it give?
**A.** 1 µg/mL (≈ 2.4 µM)

**Q.** What about the MIC [2] of the same compound?
**A.** 0.5 µg/mL (≈ 1.2 µM)

**Q.** And the MIC [7]?
**A.** > 8 µg/mL

**Q.** What about the MIC [8] of the same compound?
**A.** 1 µg/mL (≈ 2.4 µM)

**Q.** What about the MIC [9] of the same compound?
**A.** > 8 µg/mL

**Q.** What about the MIC [10] of the same compound?
**A.** > 8 µg/mL

**Q.** Which results are given for `N=C(N)NCCCOc1c2[nH]c3ccc(F)cc3c2cc2c1[nH]c1ccc(F)cc12` [drawing 232]?
**A.** MIC [1]: 1 µg/mL (≈ 2.45 µM); MIC [2]: 0.5 µg/mL (≈ 1.23 µM); MIC [7]: 8 µg/mL (≈ 19.6 µM); MIC [8]: 0.25 µg/mL (≈ 0.614 µM); MIC [9]: 2 µg/mL (≈ 4.91 µM); MIC [10]: 4 µg/mL (≈ 9.82 µM)

**Q.** For `Fc1ccc2[nH]c3c(OCCCNC4=NCCN4)c4[nH]c5ccc(F)cc5c4cc3c2c1` [drawing 234], which MIC [1] is on record?
**A.** 2 µg/mL (≈ 4.61 µM)

**Q.** What about the MIC [2] of the same compound?
**A.** 1 µg/mL (≈ 2.31 µM)

**Q.** What about the MIC [7] of the same compound?
**A.** 8 µg/mL (≈ 18.5 µM)

**Q.** What about the MIC [8] of the same compound?
**A.** 2 µg/mL (≈ 4.61 µM)

**Q.** And the MIC [9]?
**A.** 8 µg/mL (≈ 18.5 µM)

**Q.** And the MIC [10]?
**A.** > 8 µg/mL

**Q.** `Fc1ccc2[nH]c3c(O[C@@H]4CCNC4)c4[nH]c5ccc(F)cc5c4cc3c2c1` [drawing 253] was tested. Which MIC [1] did it give?
**A.** ≤ 0.25 µg/mL

**Q.** What about the MIC [2] of the same compound?
**A.** < 0.25 µg/mL

**Q.** What about the MIC [7] of the same compound?
**A.** 1 µg/mL (≈ 2.65 µM)

**Q.** What about the MIC [8] of the same compound?
**A.** < 0.25 µg/mL

**Q.** What about the MIC [9] of the same compound?
**A.** 2 µg/mL (≈ 5.3 µM)

**Q.** And the MIC [10]?
**A.** 4 µg/mL (≈ 10.6 µM)

**Q.** Which MIC [1] does the source give for `Fc1ccc2[nH]c3c(O[C@H]4CCNC4)c4[nH]c5ccc(F)cc5c4cc3c2c1` [drawing 254] here?
**A.** 0.25 µg/mL (≈ 0.662 µM)

**Q.** What about the MIC [2] of the same compound?
**A.** 0.25 µg/mL (≈ 0.662 µM)

**Q.** And the MIC [7]?
**A.** 1 µg/mL (≈ 2.65 µM)

**Q.** What about the MIC [8] of the same compound?
**A.** < 0.25 µg/mL

**Q.** What about the MIC [9] of the same compound?
**A.** 2 µg/mL (≈ 5.3 µM)

**Q.** What about the MIC [10] of the same compound?
**A.** 4 µg/mL (≈ 10.6 µM)
